The values that follow come from patent publication US20220098149A1, “METHOD FOR SYNTHESIS OF 9-CIS-BETA-CAROTENE AND FORMULATIONS THEREOF” (Ramot at Tel-Aviv University Ltd., priority 2016, published 2022).

This data set is described as follows: Initial stability tests of synthetic/purified 9CBC. The data set is classed as physicochemical.

With `CC1=C(/C=C/C(C)=C\C=C\C(C)=C\C=C\C=C(C)\C=C\C=C(C)\C=C\C2=C(C)CCCC2(C)C)C(C)(C)CCC1` [9CBC, 9-cis-β-carotene], the “Time to full decomposition” value (sensitive to oxygen and UV degradation) is reported as “less than 24 hours”. In addition, for the setting “under vacuum or nitrogen flushing”, the “Stability of purified 9CBC” value is on record as “unstable”.
